Reference: patent US20240252488A1 (KOREA RESEARCH INSTITUTE OF CHEMICAL TECHNOLOGY, priority 2020, published 2024)

Experiments:
MLKL [1] = biological target: T1, MLKL (Homo sapiens, UniProt Q8NB16); assay: Measurement of binding affinity with MLKL receptor (competitive binding assay, Kd); parameters: made in house; host or cells: HEK 293 cell line (T7 phage in E. coli BL21-derived host is also described)
T1 sequence (Q8NB16 1-471): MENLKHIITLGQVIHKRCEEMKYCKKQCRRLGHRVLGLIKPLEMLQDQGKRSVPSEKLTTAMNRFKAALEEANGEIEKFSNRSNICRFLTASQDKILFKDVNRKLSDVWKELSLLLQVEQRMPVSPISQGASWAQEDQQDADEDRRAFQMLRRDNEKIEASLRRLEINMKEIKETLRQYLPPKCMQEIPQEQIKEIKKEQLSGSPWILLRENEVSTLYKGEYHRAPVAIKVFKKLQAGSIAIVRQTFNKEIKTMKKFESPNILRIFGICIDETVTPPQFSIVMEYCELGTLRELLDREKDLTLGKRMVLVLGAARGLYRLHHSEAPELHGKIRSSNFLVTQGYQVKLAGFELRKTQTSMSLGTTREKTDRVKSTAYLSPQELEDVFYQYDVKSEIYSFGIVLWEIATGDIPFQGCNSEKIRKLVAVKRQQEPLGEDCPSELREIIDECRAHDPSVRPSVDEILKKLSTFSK
Method in brief: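 Competitive displacement of MLKL, expressed in HEK 293 cells and DNA-tagged for qPCR, from immobilized ligand on biotin-blocked beads. Compounds were added from 111× DMSO stocks (final DMSO 0.9%). Kinase left in the eluates was quantified by qPCR to give Kd.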

FADD−/− Jurkat cells = assay: Necroptosis inhibition assay, TNF-α-induced necroptosis (CellTiter-Glo 2.0); format: cell-based, human; details: TNF-α 15 ng/mL; for Necroptosis inhibition assay (Rescue %) 1 μM: compound 1 μM; for Necroptosis inhibition assay (Rescue %) 10 μM: compound 10 μM
Method in brief: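 Tested at three fixed concentrations (0.1, 1, 10 μM final) with a 30-minute room-temperature preincubation ahead of 15 ng/mL TNF-α challenge lasting 20 to 24 hours. Inhibition rate and cytotoxicity derive from ATP luminescence.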

MLKL [2] = biological target: T1, MLKL; assay: MLKL degradation assay in HepG2 cell line (western blot); format: cell-based; parameters: endogenous in cells; host or cells: HepG2 or HaCaT; details: cell line not given; for Degradation assay (Degradation %) 1 μM: compound 1 μM; for Degradation assay (Degradation %) 10 μM: compound 10 μM
Method in brief: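 Degradation is judged from MLKL band intensity on immunoblots of HepG2 lysates taken after 20-24 hours of compound at final 1 or 10 μM.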

| Structure (SMILES) | Kd (MLKL [1]) [nM] | Degradation assay (Degradation %) 1 μM (MLKL [2]) [%] | Degradation assay (Degradation %) 10 μM (MLKL [2]) [%] | Necroptosis inhibition assay (Rescue %) 1 μM (FADD−/− Jurkat cells) [%] | Necroptosis inhibition assay (Rescue %) 10 μM (FADD−/− Jurkat cells) [%] | Necroptosis inhibition assay (Rescue %) 1 μM (FADD−/− Jurkat cells; FADD−/− Jurkat cells) [%] | Necroptosis inhibition assay (Rescue %) 10 μM (FADD−/− Jurkat cells; FADD−/− Jurkat cells) [%] |
| --- | --- | --- | --- | --- | --- | --- | --- |
| Nc1ncc(-c2cnn(C3CCN(CCOCCOCCOCCNC(=O)COc4ccc5c(c4)C(=O)N(C4CCC(=O)NC4=O)C5=O)CC3)c2)nc1C(=O)O[C@@H](C(=O)Nc1ccc(F)cc1)c1ccccc1 (stereo partly drawn) [TDH-166, (R)-2-((4-fluorophenyl)amino)-2-oxo-1-phenylethyl 3-amino-6-(1-(1-(1-((2-(2,6-dioxopiperidin-3-yl)-1,3-dioxoisoindolin-5-yl)oxy)-2-oxo-6,9,12-trioxa-3-azatetradecan-14-yl)piperidin-4-yl)-1H-pyrazol-4-yl)pyrazine-2-carboxylate] | 3.4 | 18.17 | 60.05 | 27.44 | 65.57 | – | – |
| Nc1ncc(-c2cnn(C3CCN(C(=O)C4CCN(c5cccc6c5C(=O)N(C5CCC(=O)NC5=O)C6=O)CC4)CC3)c2)nc1C(=O)OC(C(=O)Nc1ccc(F)cc1)c1ccccc1 (stereo not drawn) [TDH-279, 2-((4-fluorophenyl)amino)-2-oxo-1-phenylethyl 3-amino-6-(1-(1-(1-(2-(2,6-dioxopiperidin-3-yl)-1,3-dioxoisoindolin-4-yl)piperidine-4-carbonyl)piperidin-4-yl)-1H-pyrazol-4-yl)pyrazine-2-carboxylate] | 5 | 38.42 | 15.86 | 24.78 | 44.14 | – | – |

Now from value to compound, other results behind:

| Kd (MLKL [1]) [nM] | Degradation assay (Degradation %) 1 μM (MLKL [2]) [%] | Degradation assay (Degradation %) 10 μM (MLKL [2]) [%] | Structure (SMILES) | Necroptosis inhibition assay (Rescue %) 1 μM (FADD−/− Jurkat cells) [%] | Necroptosis inhibition assay (Rescue %) 10 μM (FADD−/− Jurkat cells) [%] | Necroptosis inhibition assay (Rescue %) 1 μM (FADD−/− Jurkat cells; FADD−/− Jurkat cells) [%] | Necroptosis inhibition assay (Rescue %) 10 μM (FADD−/− Jurkat cells; FADD−/− Jurkat cells) [%] |
| --- | --- | --- | --- | --- | --- | --- | --- |
| 0.28 | 65.64 | 74.02 | Nc1ncc(-c2cnn(C3CCN(CCOC4CCN(C(=O)c5cccc(C(=O)NC6CCC(=O)NC6=O)c5)CC4)CC3)c2)nc1C(=O)O[C@@H](C(=O)Nc1ccc(F)cc1)c1ccccc1 (stereo partly drawn) [TDH-545, (R)-2-((4-fluorophenyl)amino)-2-oxo-1-phenylethyl 3-amino-6-(1-(1-(2-((1-(3-((2,6-dioxopiperidin-3-yl)carbamoyl)benzoyl)piperidin-4-yl)oxy)ethyl)piperidin-4-yl)-1H-pyrazol-4-yl)pyrazine-2-carboxylate] | – | – | 32.16 | 41.07 |
| 0.44 | 93.09 | – | COc1ccc(C(=O)N2CCC3(CC2)CC(N2CCC(CN4CCC(n5cc(-c6cnc(N)c(C(=O)O[C@@H](C(=O)Nc7ccc(F)cc7)c7ccccc7)n6)cn5)CC4)CC2)C3)cc1N1CCC(=O)NC1=O [TDH-503, (R)-2-((4-fluorophenyl)amino)-2-oxo-1-phenylethyl 3-amino-6-(1-(1-((1-(7-(3-(2,4-dioxotetrahydropyrimidin-1(2H)-yl)-4-methoxybenzoyl)-7-azaspiro[3.5]nonan-2-yl)piperidin-4-yl)methyl)piperidin-4-yl)-1H-pyrazol-4-yl)pyrazine-2-carboxylate] | – | – | 94.80 | 14.61 |
| 0.91 | 86.02 | 91.86 | Nc1ncc(-c2cnn(C3CCN(C(=O)CCC4CCN(C(=O)CCc5cccc6c5CN(C5CCC(=O)NC5=O)C6=O)CC4)CC3)c2)nc1C(=O)O[C@@H](C(=O)Nc1ccc(F)cc1)c1ccccc1 (stereo partly drawn) [TDH-439, (R)-2-((4-fluorophenyl)amino)-2-oxo-1-phenylethyl 3-amino-6-(1-(1-(3-(1-(3-(2-(2,6-dioxopiperidin-3-yl)-1-oxoisoindolin-4-yl)propanoyl)piperidin-4-yl)propanoyl)piperidin-4-yl)-1H-pyrazol-4-yl)pyrazine-2-carboxylate] | – | – | 41.96 | 43.64 |
